Measurements: patent publication US10004701B2, “Methods and compositions for treating infection” (UNIVERSITY OF ROCHESTER, priority 2012, dated 2018)
Where a name gives a salt, the structure may show the parent alone. Read-outs that look alike come from different tables or passages of the source.

Experiments:
Test in all cases: AK assay 384-well format, Prestwick library screening
[1] = test system: S. aureus strain USA300-0114; type: cell-based, Staphylococcus aureus; settings: 50 μM final drug concentration; for fold induction at 50 µM: Staphylococcus aureus, USA300, 3 h
E. cloacae = type: cell-based, Enterobacter cloacae; settings: 50 μM final drug concentration; for fold induction at 50 µM: Enterobacter cloacae, 3 h
E. coli = type: cell-based, Escherichia coli; settings: 50 μM final drug concentration; for fold induction at 50 µM: Escherichia coli, 3 h
[2] = test system: A. baumannii strain 98-37-09; type: cell-based, Acinetobacter baumannii; settings: 50 μM final drug concentration; for fold induction at 50 µM: Acinetobacter baumannii, 983709, 3 h
K. pneumoniae = type: cell-based, Klebsiella pneumoniae; settings: 50 μM final drug concentration; for fold induction at 50 µM: Klebsiella pneumoniae, 3 h
E. faecium = type: cell-based, Enterococcus faecium; settings: 50 μM final drug concentration; for fold induction at 50 µM: Enterococcus faecium, 3 h
P. aeruginosa = type: cell-based, Pseudomonas aeruginosa; settings: 50 μM final drug concentration; for fold induction at 50 µM: Pseudomonas aeruginosa, 3 h
[3] = planktonic, […], read-out: AK-based Prestwick Library Screening Results, S. aureus (fold increase in extracellular AK activity)
[4] = planktonic, […], read-out: AK-based Prestwick Library Screening Results, E. cloacae (fold increase in extracellular AK activity)
[5] = planktonic, […], read-out: AK-based Prestwick Library Screening Results, E. coli (fold increase in extracellular AK activity)
[6] = planktonic, […], read-out: AK-based Prestwick Library Screening Results, A. baumannii (fold increase in extracellular AK activity)
[7] = planktonic, […], read-out: AK-based Prestwick Library Screening Results, K. pneumoniae (fold increase in extracellular AK activity)
[8] = planktonic, […], read-out: AK-based Prestwick Library Screening Results, E. faecium (fold increase in extracellular AK activity)
[9] = planktonic, […], read-out: AK-based Prestwick Library Screening Results, P. aeruginosa (fold increase in extracellular AK activity)
[10] = 384-well format, cutoff for positive-scoring molecules 3-fold increase, read-out: AK-based Prestwick Library Screening Results, S. aureus (increase in extracellular AK activity)
[11] = 384-well format, cutoff for positive-scoring molecules 3-fold increase, read-out: AK-based Prestwick Library Screening Results, E. cloacae (increase in extracellular AK activity)
[12] = 384-well format, cutoff for positive-scoring molecules 3-fold increase, read-out: AK-based Prestwick Library Screening Results, E. coli (increase in extracellular AK activity)
[13] = 384-well format, cutoff for positive-scoring molecules 3-fold increase, read-out: AK-based Prestwick Library Screening Results, A. baumannii (increase in extracellular AK activity)
[14] = 384-well format, cutoff for positive-scoring molecules 3-fold increase, read-out: AK-based Prestwick Library Screening Results, K. pneumoniae (increase in extracellular AK activity)
[15] = 384-well format, cutoff for positive-scoring molecules 3-fold increase, read-out: AK-based Prestwick Library Screening Results, E. faecium (increase in extracellular AK activity)
[16] = 384-well format, cutoff for positive-scoring molecules 3-fold increase, read-out: AK-based Prestwick Library Screening Results, P. aeruginosa (increase in extracellular AK activity)
[17] = cutoff for positive-scoring molecules 3-fold increase
[18] = 384-well format, cutoff for positive-scoring molecules 3-fold increase
[19] = planktonic S. aureus, positive cutoff 3-fold increase, read-out: AK-based Prestwick library screening result, S. aureus (fold increase in extracellular AK activity)
[20] = planktonic E. cloacae, positive cutoff 3-fold increase, read-out: AK-based Prestwick library screening result, E. cloacae (fold increase in extracellular AK activity)
[21] = planktonic E. coli, positive cutoff 3-fold increase, read-out: AK-based Prestwick library screening result, E. coli (fold increase in extracellular AK activity)
[22] = planktonic A. baumannii, positive cutoff 3-fold increase, read-out: AK-based Prestwick library screening result, A. baumannii (fold increase in extracellular AK activity)
[23] = planktonic K. pneumoniae, positive cutoff 3-fold increase, read-out: AK-based Prestwick library screening result, K. pneumoniae (fold increase in extracellular AK activity)
[24] = planktonic E. faecium, positive cutoff 3-fold increase, read-out: AK-based Prestwick library screening result, E. faecium (fold increase in extracellular AK activity)
[25] = planktonic P. aeruginosa, positive cutoff 3-fold increase, read-out: AK-based Prestwick library screening result, P. aeruginosa (fold increase in extracellular AK activity)

SMILES: O=C1C(O)=C([C@H]2CC[C@H](c3ccc(Cl)cc3)CC2)C(=O)c2ccccc21 [Atovaquone]
- fold induction at 50 µM ([1]; planktonic, cutoff for positive 3-fold increase, read-out: AK-based Prestwick Library Screening Results, S. aureus (fold increase in extracellular AK activity)): 1.2
- fold induction at 50 µM (E. cloacae; planktonic, cutoff for positive 3-fold increase, read-out: AK-based Prestwick Library Screening Results, E. cloacae (fold increase in extracellular AK activity)): 1.4
- fold induction at 50 µM (E. coli; planktonic, cutoff for positive 3-fold increase, read-out: AK-based Prestwick Library Screening Results, E. coli (fold increase in extracellular AK activity)): 1.1
- fold induction at 50 µM ([2]; planktonic, cutoff for positive 3-fold increase, read-out: AK-based Prestwick Library Screening Results, A. baumannii (fold increase in extracellular AK activity)): 1.2
- fold induction at 50 µM (K. pneumoniae; planktonic, cutoff for positive 3-fold increase, read-out: AK-based Prestwick Library Screening Results, K. pneumoniae (fold increase in extracellular AK activity)): 0.8
- fold induction at 50 µM (E. faecium; planktonic, cutoff for positive 3-fold increase, read-out: AK-based Prestwick Library Screening Results, E. faecium (fold increase in extracellular AK activity)): 1
- fold induction at 50 µM (P. aeruginosa; planktonic, cutoff for positive 3-fold increase, read-out: AK-based Prestwick Library Screening Results, P. aeruginosa (fold increase in extracellular AK activity)): 1

SMILES: C=C1[C@@H]2CC[C@H]3[C@]4(C)C[C@H](O[C@@H]5O[C@H](CO)[C@@H](OS(=O)(=O)O)[C@H](OS(=O)(=O)O)[C@H]5OC(=O)CC(C)C)C[C@@H](C(=O)O)[C@H]4CC[C@]3(C2)[C@@H]1O [Atractyloside potassium salt]
- fold induction at 50 µM [1, 3]: 0.7
- fold induction at 50 µM (E. cloacae; [4]): 0.8
- fold induction at 50 µM (E. coli; [5]): 0.7
- fold induction at 50 µM [2, 6]: 0.8
- fold induction at 50 µM (K. pneumoniae; [7]): 0.6
- fold induction at 50 µM (E. faecium; [8]): 0.9
- fold induction at 50 µM (P. aeruginosa; [9]): 0.6

SMILES: COc1ccc(CC2c3cc(OC)c(OC)cc3CC[N+]2(C)CCC(=O)OCCCCCOC(=O)CC[N+]2(C)CCc3cc(OC)c(OC)cc3C2Cc2ccc(OC)c(OC)c2)cc1OC (centres unmarked) [Atracurium besylate]
- fold induction at 50 µM [1, 10]: 0.5
- fold induction at 50 µM (E. cloacae; [11]): 0.3
- fold induction at 50 µM (E. coli; [12]): 0.5
- fold induction at 50 µM [2, 13]: 0.4
- fold induction at 50 µM (K. pneumoniae; [14]): 0.5
- fold induction at 50 µM (E. faecium; [15]): 0.8
- fold induction at 50 µM (P. aeruginosa; [16]): 0.4

SMILES: CC1=CC(=O)C2=C(C)C[C@H](O)[C@@H]3[C@H](OC(=O)[C@H]3C)[C@H]12 [Austricine hydrate]
- fold induction at 50 µM [1, 3]: 1.2
- fold induction at 50 µM (E. cloacae; [4]): 1.3
- fold induction at 50 µM (E. coli; [5]): 1.2
- fold induction at 50 µM [2, 6]: 1
- fold induction at 50 µM (K. pneumoniae; [7]): 1
- fold induction at 50 µM (E. faecium; [8]): 1.1
- fold induction at 50 µM (P. aeruginosa; [9]): 1.1

SMILES: OC(c1ccccc1)(c1ccccc1)C1CCNCC1 [Azacyclonol]
- fold induction at 50 µM ([1]; 384-well format, […], read-out: AK-based Prestwick Library Screening Results, S. aureus (increase in extracellular AK activity)): 0.7
- fold induction at 50 µM (E. cloacae; 384-well format, […], read-out: AK-based Prestwick Library Screening Results, E. cloacae (increase in extracellular AK activity)): 0.9
- fold induction at 50 µM (E. coli; 384-well format, […], read-out: AK-based Prestwick Library Screening Results, E. coli (increase in extracellular AK activity)): 0.6
- fold induction at 50 µM ([2]; 384-well format, […], read-out: AK-based Prestwick Library Screening Results, A. baumannii (increase in extracellular AK activity)): 0.6
- fold induction at 50 µM (K. pneumoniae; 384-well format, […], read-out: AK-based Prestwick Library Screening Results, K. pneumoniae (increase in extracellular AK activity)): 0.6
- fold induction at 50 µM (E. faecium; 384-well format, […], read-out: AK-based Prestwick Library Screening Results, E. faecium (increase in extracellular AK activity)): 0.9
- fold induction at 50 µM (P. aeruginosa; 384-well format, […], read-out: AK-based Prestwick Library Screening Results, P. aeruginosa (increase in extracellular AK activity)): 0.6

SMILES: Nc1ncn([C@@H]2O[C@H](CO)[C@@H](O)[C@H]2O)c(=O)n1 [Azacytidine-5]
- AK-based Prestwick Library Screening Results, S. aureus (fold increase in extracellular AK activity) [1, 17]: 1.2
- AK-based Prestwick Library Screening Results, E. cloacae (fold increase in extracellular AK activity) (E. cloacae; [17]): 1.5
- AK-based Prestwick Library Screening Results, E. coli (fold increase in extracellular AK activity) (E. coli; [17]): 2.2
- AK-based Prestwick Library Screening Results, A. baumannii (fold increase in extracellular AK activity) [2, 17]: 1.4
- AK-based Prestwick Library Screening Results, K. pneumoniae (fold increase in extracellular AK activity) (K. pneumoniae; [17]): 0.9
- AK-based Prestwick Library Screening Results, E. faecium (fold increase in extracellular AK activity) (E. faecium; [17]): 1.0
- AK-based Prestwick Library Screening Results, P. aeruginosa (fold increase in extracellular AK activity) (P. aeruginosa; [17]): 1.2

SMILES: Nc1nc(O)c2[nH]nnc2n1 [Azaguanine-8]
- AK-based Prestwick Library Screening Results, S. aureus (increase in extracellular AK activity) [1, 18]: 0.6
- AK-based Prestwick Library Screening Results, E. cloacae (increase in extracellular AK activity) (E. cloacae; [18]): 0.3
- AK-based Prestwick Library Screening Results, E. coli (increase in extracellular AK activity) (E. coli; [18]): 0.4
- AK-based Prestwick Library Screening Results, A. baumannii (increase in extracellular AK activity) [2, 18]: 0.3
- AK-based Prestwick Library Screening Results, K. pneumoniae (increase in extracellular AK activity) (K. pneumoniae; [18]): 0.3
- AK-based Prestwick Library Screening Results, E. faecium (increase in extracellular AK activity) (E. faecium; [18]): 0.8
- AK-based Prestwick Library Screening Results, P. aeruginosa (increase in extracellular AK activity) (P. aeruginosa; [18]): 0.3

SMILES: O=C(CCCN1CCN(c2ccccn2)CC1)c1ccc(F)cc1 [Azaperone]
- fold induction at 50 µM [1, 19]: 1.2
- fold induction at 50 µM (E. cloacae; [20]): 1.9
- fold induction at 50 µM (E. coli; [21]): 1.1
- fold induction at 50 µM [2, 22]: 1.2
- fold induction at 50 µM (K. pneumoniae; [23]): 1
- fold induction at 50 µM (E. faecium; [24]): 1
- fold induction at 50 µM (P. aeruginosa; [25]): 1

SMILES: CCCC1C(=O)N2C(N(C)C)=Nc3ccc(C)cc3N2C1=O (centres unmarked) [Azapropazone]
- fold induction at 50 µM [1, 19]: 0.8
- fold induction at 50 µM (E. cloacae; [20]): 1.5
- fold induction at 50 µM (E. coli; [21]): 1.1
- fold induction at 50 µM [2, 22]: 0.9
- fold induction at 50 µM (K. pneumoniae; [23]): 0.9
- fold induction at 50 µM (E. faecium; [24]): 1
- fold induction at 50 µM (P. aeruginosa; [25]): 1

SMILES: Cn1cnc([N+](=O)[O-])c1Sc1ncnc2nc[nH]c12 [Azathioprine]
- fold induction at 50 µM [1, 10]: 0.7
- fold induction at 50 µM (E. cloacae; [11]): 0.8
- fold induction at 50 µM (E. coli; [12]): 0.6
- fold induction at 50 µM [2, 13]: 0.7
- fold induction at 50 µM (K. pneumoniae; [14]): 0.5
- fold induction at 50 µM (E. faecium; [15]): 0.8
- fold induction at 50 µM (P. aeruginosa; [16]): 0.6

SMILES: Cc1n[nH]c(=O)[nH]c1=O [Azathymine, 6]
- AK-based Prestwick Library Screening Results: S. aureus (increase in extracellular AK activity) ([1]; planktonic S. aureus, 384-well, cutoff for positive-scoring molecules 3-fold increase): 0.4
- AK-based Prestwick Library Screening Results: E. cloacae (increase in extracellular AK activity) (E. cloacae; planktonic E. cloacae, 384-well, cutoff for positive-scoring molecules 3-fold increase): 0.6
- AK-based Prestwick Library Screening Results: E. coli (increase in extracellular AK activity) (E. coli; planktonic E. coli, 384-well, […]): 0.6
- AK-based Prestwick Library Screening Results: A. baumannii (increase in extracellular AK activity) ([2]; planktonic A. baumannii, 384-well, cutoff for positive-scoring molecules 3-fold increase): 0.5
- AK-based Prestwick Library Screening Results: K. pneumoniae (increase in extracellular AK activity) (K. pneumoniae; planktonic K. pneumoniae, 384-well, cutoff for positive-scoring molecules 3-fold increase): 0.5
- AK-based Prestwick Library Screening Results: E. faecium (increase in extracellular AK activity) (E. faecium; planktonic E. faecium, 384-well, cutoff for positive-scoring molecules 3-fold increase): 0.9
- AK-based Prestwick Library Screening Results: P. aeruginosa (increase in extracellular AK activity) (P. aeruginosa; planktonic P. aeruginosa, 384-well, cutoff for positive-scoring molecules 3-fold increase): 0.6
